Assay results published in the NIST ThermoML archive (doi:10.1021/je100990n).
Values joined by “and” are separate entries in the source; they are usually repeats but may differ in a detail not shown here. Equal values may be shown once. ± gives the expanded uncertainty stated by the source.

Settings: 293.15 K; 101.33 kPa; Liquid; Vibrating wire viscometry

## O [water]
  viscosity: 1.002 ± 0.0087 mPa·s and 1.005 ± 0.0087 mPa·s and 0.9992 ± 0.0087 mPa·s
